The values below come from patent publication US7714014B2, “Targeting GLI proteins in human cancer by small molecules” (The Regents of the University of California, priority 2005, dated 2010).

The subject of one data set is Melanoma LOX tumor. In words: Mouse Xenograft Model (Melanoma LOX). The data set is classed as in vivo. To be noted: 50 mg/kg i.p. daily for 2×6 days. How it is done:
The small molecule compound FN1-8 was tested in vivo in the mouse xenograft model bearing human cancer cells. Briefly, female athymic nude mice strain NCRNU-M (5-10 weeks old, 20-25 grams in weight; Taconic, Germantown, N.Y.) was maintained in pathogen-free conditions. Three human cancer cell lines: NSCLC H460, melanoma LOX, (both showing Gli3 activation), and colon cancer HT29 (no Gli3 activation, as a negative control), were used. Ten mice were used in each group and injected s.c. with 3×10^6 cancer cells in the dorsal area in a volume of 100 μl. After inoculation, human cancer cells were allowed to grow in mice for 7 days to become visible tumor nodules. Animals were then injected with small molecule compound FN1-8 at a dose of 50 mg/kg body weight (1 mg/mouse per day). DMSO alone was used as control. […] Tumor size was measured every three days, and tumor volumes were calculated using width (x) and length (y) (x^2y/2, where x<y). […]
In vivo efficacy study of small molecule compound FN1-8 were performed using a Mouse Xenograft Model (Melanoma Lox). […] Tumor size and tumor volumes were calculated as described above.
Three weeks after the initial tumor inoculation and the treatment as described above, tumors were dissected from the mice of each group and their weights were measured using a scale.

Data set [1] relates to cytosolic β-catenin in melanoma cell lines A375 and SK-Mel-5. Nature of the data set: Western blot of cytosolic β-catenin. The data set is classed as cell-based, human. To be noted: 10 μM or 20 μM. As to the method:
[…] Protein concentrations were measured using Bio-Rad Protein Assay reagent. Whole cell lysate protein (5-20 ug) were boiled for 5 min and separated by 10-20% SDS-PAGE. Proteins were transferred to an Immobilon-P membrane (Millipore Corp., Bedford, Mass.) using semi-dry transfer cell (Bio-Rad; Benicia, Calif.). The membranes were blocked with 5% nonfat milk powder and 0.1% Tween 20 in Tris-buffer saline overnight at 4° C. and then incubated with primary antibody for 1 h at room temperature. Membranes were washed in 5% nonfat milk powder and 0.1% Tween 20 in Tris-buffer saline for three 10-min periods. Horseradish peroxidase-conjugated goat anti-rabbit or donkey anti-mouse antibodies were used as secondary antibodies. Proteins were visualized with chemiluminescence luminol reagents (Santa Cruz Bio-technology). Anti-Dvl-3, and anti-Survivin, antibodies were from Santa Cruz Biotechnology (Santa Cruz, Calif.). Anti-Caspase3 antibody was from Oncogene (Cambridge, Mass.). Anti-β-Actin antibody was from Sigrna-Aldrich Corp. (St. Louis, Mo.). Anti-β-catenin antibody was from Transduction Laboratories (Lexington, Ky.). Anti-Cytochrome c antibody was from BD Biosciences (San Diego, Calif.). For detecting alteration of β-catenin cytosolic extracts were prepared and examined as described previously in the publications from our lab. […]

The test system of another data set is A375 (melanoma). In words: Apoptosis analysis (Annexin V FITC, flow cytometry). The data set is classed as cell-based, human. As to the method:
(§1) Apoptosis was analyzed by using an Annexin V FITC Apoptosis Detection Kit (Biosource, Camarillo, Calif.), according to the manufacturer's protocol. After treatment with different small molecule compounds at various concentrations for about 3 days, cells were harvested by trypsinization, stained and immediately analyzed by flow cytometry (FACScan; Decton Dickinson, Franklin Lake, N.J.). Early apoptotic cells with exposed phosphatidylserine but intact cell membranes will bind to Annexin V-FITC, but not propidium iodide (PI). Cells in necrotic or late apoptotic stages will be labeled with both Annexin V-FITC and PI. “% apoptotic cells” or “% apoptosis” refers to the combined early and late apoptotic cells.
(§2) Dose titration experiments of small molecule compound FN1-8 was performed using the melanoma cell lines A375, G361, SK-Mel-2, SK-Mel-5, and SK-Mel-28. A 375 cells were plated in 6-well plates and incubated with DM SO (control) or 2 μM, 5 μM, 10 μM, 20 μM, and 40 μM of FN1-8, respectively, for 3 days. A dramatic and dose-dependent cell killing in this cell line was observed when FN1-8 was added at 10 μM or more (data not shown). […] After 4 days of incubation with 20 μM FN1-8, approximately 20% of the Malme-3M cells, 28% of SK-Mel-2 cells, 36% of SK-Mel-5 cells, 41% of A375 cells, and 17% of G361 cells underwent apoptosis, while less than 3% of normal skin fibroblast cells underwent apoptosis under the same conditions (Table 3).
On the technique in general: Flow cytometry measures light scatter and fluorescence of single cells or particles in a stream.

The next data set has as its system SK-Mel-28 (melanoma). Described as above. The data set is classed as cell-based, human. As to the method:
as §1, §2

The test system of data set [2] is Malme-3 (normal skin cells). The description is as above. Format: cell-based, human. To be noted: 10 μM. As to the method:
as §1, §2

A further data set deals with G361 (melanoma). The data set is described as above. Format: cell-based, human. How it is done: as §1, §2
The subject of a further data set is SK-Mel-2 (melanoma). Described as above. Format: cell-based, human. How it is done:
as §1, §2

The next data set concerns Malme-3M (melanoma). The data set is described as above. Format: cell-based, human. To be noted: 10 μM. As to the method: as §1, §2
Data set [3] is described as follows: Pharmacokinetic analysis in mice (i.p. injection). Format: in vivo, mouse. As to the method: Three mice were i.p. injected in the abdomens with small molecule compounds FN1-5 at a dose of 30 mg/kg body weight. Then plasma was collected from the tail-vein of each mouse at 10 min, 2 hours, 6 hours and 24 hours after FN1-5 injection.
Similarly, the pharmacokinetic properties of small molecule compound FN1-8 were analyzed (FIG. 21B). Comparing the uptake of FN1-8 to FN1-5, the uptake of FN1-5 after i.p injection seems to be better, by about 2 fold.

Molecules are shown by their SMILES. Entries after “also recorded” stand apart in the source; their conditions may differ.

Regarding `O=C(NCCc1ccc(O)cc1)C1C(c2ccccc2)=NN(c2ccccc2)C1c1ccccc1` (stereo not shown) [FN1-8, N-(2-(4-Hydroxyphenyl)ethyl)-1,3,5-triphenyl-4,5-dihydro-pyrazole-4-carboxyamide], the tumor growth result in the data set on Melanoma LOX tumor is on record as “dramatically suppressed; also recorded: significantly suppressed”. Moreover, in the data set on Melanoma LOX tumor (three weeks after inoculation), the tumor weight result is recorded as “dramatically decreased”. Moreover, the “cytosolic β-catenin level” value in [1] is on record as “down-regulated”. For the same compound, the “% of apoptotic cells” value in the data set on A375 (melanoma) (A375, 10 μM) was determined as 35.8%; in the data set on A375 (melanoma) (A375, 20 μM, 4 days of incubation), 39.7%; in the data set with SK-Mel-28 (melanoma) (SK-Mel-28, 10 μM) it was 7.7%; in the data set on SK-Mel-28 (melanoma) (SK-Mel-28, 20 μM), 11.8%; in data set [2], 2.1%; in the data set with G361 (melanoma) (G361, 10 μM), 7.5%. The “% of apoptotic cells” value in the data set with G361 (melanoma) (G361, 20 μM, 4 days of incubation) is 15.5%; in the data set with SK-Mel-2 (melanoma) (SK-Mel-2, 10 μM), 9%; with SK-Mel-2 (melanoma) (SK-Mel-2, 20 μM, 4 days of incubation) it was 25.3%; in the data set on Malme-3M (melanoma), 10.5%.
For the compound `O=C(NCCCCCO)C1C(c2ccccc2)=NN(c2ccccc2)C1c1ccccc1` (stereo not shown) [FN1-5, N-(5-Hydroxypentyl)-1,3,5-triphenyl-4,5-dihydro-pyrazole-4-carboxyamide], the “uptake of FN1-5 relative to FN1-8” value in [3] (i.p. injection) is given as “about 2 fold”. Also, in data set [3] (i.p., 30 mg/kg), the “time of uptake into plasma” value is given as no more than 10 min and the “time within which plasma/serum concentration diminishes” value is no more than 24 h.
